Laboratory results as given in US10543223B2, “Mannose derivatives useful for treating pathologies associated with adherent E. coli” (ENTEROME, priority 2015, dated 2020).
Values joined by “and” are separate entries in the source; they are usually repeats but may differ in a detail not shown here. Equal entries are not always repeated. Where two headings read alike, the source gives them in different places.

Tests used:
[1] = Faeces concentrations and recovery after IV and PO administration to rats; type: in vivo, Sprague Dawley rats; conditions: 0-24 h; for dose excreted: Sprague Dawley, rat, faeces
Description: Plasma and faeces concentrations after administration of Compound 1b and for compound 13 of WO 2014/016361 at 1 mg/kg by intravenous route and 10 mg/kg by oral route to Sprague Dawley rats Blank rat faeces are homogenized with 3 volumes of UHQ water until obtention of a paste. Then 100 μL of the homogenate are spiked with the molecules and precipitated with 300 μL of acetonitrile. The concentration ranges tested are: • 0.5 ng/mL to 1000 ng/mL for plasma, • 4 to 2000 ng/g for faeces, corresponding to 1 to 500 ng/mL of faeces homogenate. 3. In-Life Part After administration, the animals are placed in individual metabolic cages in order to collect faeces samples during 24 hours. Faeces samples are collected over the 24 hours of the experiment. They are precisely weighed and 3 volumes of UHQ water are added. The mixture is homogeneized until obtention of a paste. Then 100 μL of the homogenate are taken and extracted with 300 μL of Acetonitrile. Analysis is performed using LC-MS/MS determination according to previous analytical test results.

[2] = Plasma concentrations and pharmacokinetics after IV and PO administration to rats; type: in vivo, Sprague Dawley rats; conditions: for % AUCextra / AUC(0-inf) / AUC(0-t) / Cmax / Tmax: DMSO, based on mean data
Description: Plasma and faeces concentrations after administration of Compound 1b and for compound 13 of WO 2014/016361 at 1 mg/kg by intravenous route and 10 mg/kg by oral route to Sprague Dawley rats
At least 8 point calibration standards are run using standard conditions which consist to LC-MS/MS system with C18 column after precipitation of proteins with acetonitrile before the start of the analytical test.
For the plasma, 100 μL of blank rat plasma are directly spiked with the compounds before being precipitate with 300 μL of acetonitrile.
The concentration ranges tested are: • 0.5 ng/mL to 1000 ng/mL for plasma, • 4 to 2000 ng/g for faeces, corresponding to 1 to 500 ng/mL of faeces homogenate. 3. In-Life Part
12 male Sprague Dawley rats around 6-7 week old are used.
At prescribed times, blood is collected. Animals are briefly anaesthetised with Isoflurane® using an anaesthetic system (Équipement Vétérinaire Minerve) during blood samplings.
Blood samples are centrifuged at 2500 rpm at +4° C. (between 0 and 9° C.), the plasma is removed and placed into labelled polypropylene tubes. Individual plasma samples are stored frozen at −20° C. (target temperature) until analysis.
100 μL of the plasma sample are taken and 300 μL of acetonitrile are added. After protein precipitation, analysis is performed using LC-MS/MS determination according to previous analytical test results.
Concentrations of the samples are calculated directly from chromatograms after automatic integration by Analyst® 1.5.1 and expressed as ng/mL.
Mean plasma concentrations are calculated (when calculable, i.e. n≥2) using individual concentration and are expressed with the corresponding standard deviation value and variation coefficient (when calculable, i.e. n≥3), with
[formula] The individual plasma concentrations are tabulated for each rat and scheduled sampling time. Concentrations below the LLOQ are indicated by BLQ. All BLQ concentrations are substituted by zero for calculation of the descriptive statistics of the concentrations. 5. Results Estimation of pharmacokinetics parameters is performed using Kinetica® (Version 4.3—Thermo Electron Corporation—Philadelphia—USA). It was performed by using a one-compartment model approach, which considers the body as a single compartment in which the concentration is homogeneous. The following parameters are estimated: Cmax (ng/mL): maximal plasma concentration Tmax (h): first time to reach Cmax AUCt (ng/mL*h): area under the plasma concentration-time curve from administration up to the last quantifiable concentration at time t
[formula] “BLQ” stands for “Below the Limit of Quantification” ([…] for plasma). Compound 1b

[3] = IV 1 mg/kg, individual rats IV1-IV3, 1 mg/kg
[4] = PO 10 mg/kg, individual rats PO4-PO6, 10 mg/kg
[5] = male, Sprague Dawley, rat, plasma, IV 1 mg/kg
[6] = male, Sprague Dawley, rat, plasma, PO 10 mg/kg

For Cc1nc(-c2cnccn2)sc1C(=O)c1cnc(N[C@H]2O[C@H](CO)[C@@H](O)[C@H](O)[C@@H]2O)s1 [13 of WO 2014/016361], the Faeces concentration [1, 3] was 3303 ng/g and 3130 ng/g and 3346 ng/g, the “Faeces concentration (homogenate)” value [1, 3] was 826 ng/mL and 783 ng/mL and 836 ng/mL and the Recovery in faeces [1, 3] was 10.9% and 15.9%. For the same compound, the “Total amount of compound in faeces” value [1, 3] was 30095 ng and 28426 ng and 38053 ng, the “Faeces concentration (homogenate), mean” value ([1]; IV 1 mg/kg, mean of 3 rats) was 815 ng/mL and the “Faeces concentration, mean” value ([1]; IV 1 mg/kg, mean of 3 rats) was 3260 ng/g. For the same compound, the “Total amount of compound in faeces, mean” value ([1]; IV 1 mg/kg, mean of 3 rats) was 32191 ng, the Faeces concentration [1, 4] was 103917 ng/g and 165663 ng/g and 132537 ng/g and the “Faeces concentration (homogenate)” value [1, 4] was 25979 ng/mL and 41416 ng/mL and 33134 ng/mL. The Recovery in faeces [1, 4] was 57.9% and 49.3%, the “Total amount of compound in faeces” value [1, 4] was 1203583 ng and 1389086 ng and 1183679 ng and the “Faeces concentration (homogenate), mean” value ([1]; PO 10 mg/kg, mean of 3 rats) was 33510 ng/mL. For the same compound, the “Faeces concentration, mean” value ([1]; PO 10 mg/kg, mean of 3 rats) was 134039 ng/g, the “Total amount of compound in faeces, mean” value ([1]; PO 10 mg/kg, mean of 3 rats) was 1258783 ng and the dose excreted ([1]; iv, 1 mg/kg, IV 1 mg/kg, individual rats IV1-IV3, read-out: Recovery in faeces) was 13.1%. For the same compound, the dose excreted ([1]; iv, 1 mg/kg, IV 1 mg/kg, mean of 3 rats, read-out: Recovery in faeces, mean) was 13.3%, the dose excreted ([1]; po, 10 mg/kg, PO 10 mg/kg, individual rats PO4-PO6, read-out: Recovery in faeces) was 50.1% and the Plasma concentration ([2]; IV 1 mg/kg, 0.083 h, individual rats IV1-IV3, 1 mg/kg) was 1451.7 ng/mL and 1443.6 ng/mL. For the same compound, the Plasma concentration ([2]; IV 1 mg/kg, 0.5 h, individual rats IV1-IV3, 1 mg/kg) was 67.6 ng/mL and 58.5 ng/mL, the Plasma concentration ([2]; IV 1 mg/kg, 2 h, individual rats IV1-IV3, 1 mg/kg) was 1.6 ng/mL and 1.8 ng/mL and the Plasma concentration ([2]; IV 1 mg/kg, 6 h, individual rats IV1-IV3) was “BLQ”. The Plasma concentration ([2]; IV 1 mg/kg, 24 h, individual rats IV1-IV3) was “BLQ”, the “% AUCextra” value ([2]; IV 1 mg/kg) was 0.11% and the Plasma concentration ([2]; PO 10 mg/kg, 0.5 h, individual rats PO4-PO6, 10 mg/kg) was 10.9 ng/mL and 7.0 ng/mL. The Plasma concentration ([2]; PO 10 mg/kg, 1 h, individual rats PO4-PO6, 10 mg/kg) was 4.6 ng/mL and 5.4 ng/mL, the Plasma concentration ([2]; PO 10 mg/kg, 2 h, individual rats PO4-PO6, 10 mg/kg) was 2.3 ng/mL and 2.0 ng/mL and the Plasma concentration ([2]; PO 10 mg/kg, 6 h, individual rats PO4-PO6, 10 mg/kg) was 1.9 ng/mL and 1.6 ng/mL. The Plasma concentration ([2]; PO 10 mg/kg, 24 h, individual rats PO4-PO6) was “BLQ”, the “% AUCextra” value ([2]; PO 10 mg/kg) was 32.3% and the concentration at 0.083 h ([2]; male, Sprague Dawley, rat, plasma, iv, 1 mg/kg, IV 1 mg/kg, 0.083 h, individual rats IV1-IV3, read-out: Plasma concentration) was 1130 ng/mL. The concentration at 0.083 h ([2]; male, Sprague Dawley, rat, plasma, iv, 1 mg/kg, IV 1 mg/kg, 0.083 h, mean of 3 rats (BLQ = 0), read-out: Plasma concentration, mean) was 1340 ng/mL, the concentration at 0.5 h ([2]; male, Sprague Dawley, rat, plasma, iv, 1 mg/kg, IV 1 mg/kg, 0.5 h, individual rats IV1-IV3, read-out: Plasma concentration) was 56.1 ng/mL and the concentration at 0.5 h ([2]; male, Sprague Dawley, rat, plasma, iv, 1 mg/kg, IV 1 mg/kg, 0.5 h, mean of 3 rats (BLQ = 0), read-out: Plasma concentration, mean) was 60.8 ng/mL. For the same compound, the concentration at 2 h ([2]; male, Sprague Dawley, rat, plasma, iv, 1 mg/kg, IV 1 mg/kg, 2 h, individual rats IV1-IV3, read-out: Plasma concentration) was 1.6 ng/mL, the concentration at 2 h ([2]; male, Sprague Dawley, rat, plasma, iv, 1 mg/kg, IV 1 mg/kg, 2 h, mean of 3 rats (BLQ = 0), read-out: Plasma concentration, mean) was 1.6 ng/mL and the concentration at 6 h ([2]; male, Sprague Dawley, rat, plasma, iv, 1 mg/kg, IV 1 mg/kg, 6 h, mean of 3 rats (BLQ = 0), read-out: Plasma concentration, mean) was 0 ng/mL. It also gave a concentration at 24 h ([2]; male, Sprague Dawley, rat, plasma, iv, 1 mg/kg, IV 1 mg/kg, 24 h, mean of 3 rats (BLQ = 0)) of 0 ng/mL, a concentration at 0.5 h ([2]; male, Sprague Dawley, rat, plasma, po, 10 mg/kg, PO 10 mg/kg, 0.5 h, individual rats PO4-PO6, read-out: Plasma concentration) of 5.5 ng/mL and a concentration at 0.5 h ([2]; male, Sprague Dawley, rat, plasma, po, 10 mg/kg, PO 10 mg/kg, 0.5 h, mean of 3 rats (BLQ = 0), read-out: Plasma concentration, mean) of 7.8 ng/mL. It also gave a concentration at 1 h ([2]; male, Sprague Dawley, rat, plasma, po, 10 mg/kg, PO 10 mg/kg, 1 h, individual rats PO4-PO6, read-out: Plasma concentration) of 3.3 ng/mL, a concentration at 1 h ([2]; male, Sprague Dawley, rat, plasma, po, 10 mg/kg, PO 10 mg/kg, 1 h, mean of 3 rats (BLQ = 0), read-out: Plasma concentration, mean) of 4.4 ng/mL and a concentration at 2 h ([2]; male, Sprague Dawley, rat, plasma, po, 10 mg/kg, PO 10 mg/kg, 2 h, individual rats PO4-PO6, read-out: Plasma concentration) of 1.9 ng/mL. For the same compound, the concentration at 2 h ([2]; male, Sprague Dawley, rat, plasma, po, 10 mg/kg, PO 10 mg/kg, 2 h, mean of 3 rats (BLQ = 0), read-out: Plasma concentration, mean) was 2 ng/mL, the concentration at 6 h ([2]; male, Sprague Dawley, rat, plasma, po, 10 mg/kg, PO 10 mg/kg, 6 h, individual rats PO4-PO6, read-out: Plasma concentration) was 1.7 ng/mL and the concentration at 6 h ([2]; male, Sprague Dawley, rat, plasma, po, 10 mg/kg, PO 10 mg/kg, 6 h, mean of 3 rats (BLQ = 0), read-out: Plasma concentration, mean) was 1.7 ng/mL. The concentration at 24 h ([2]; male, Sprague Dawley, rat, plasma, po, 10 mg/kg, PO 10 mg/kg, 24 h, mean of 3 rats (BLQ = 0)) was 0 ng/mL, the AUC(0-inf) [2, 5] was 452 ng·h/mL and the AUC(0-t) [2, 5] was 451 ng·h/mL. The Cmax [2, 5] was 1340 ng/mL, the Tmax [2, 5] was 4.8 min and the bioavailability ([2]; male, Sprague Dawley, rat, plasma, PO 10 mg/kg vs IV 1 mg/kg, calculated based on AUCt, read-out: F (bioavailability)) was 0.3%. The AUC(0-t) [2, 6] was 16 ng·h/mL, the Cmax [2, 6] was 7.79 ng/mL and the Tmax [2, 6] was 30 min. For the same compound, the AUC(0-inf) ([2]; male, Sprague Dawley, rat, plasma, PO 10 mg/kg, % AUC extra >20%: value given for indication) was 23.3 ng·h/mL.
